We go through 6 molecules from patent publication US11485742B2, “2-azaspiro[3.4]octane derivatives as M4 agonists” (NOVARTIS AG, priority 2019, dated 2022).

The target of experiment [1] is T1, human cloned CHRM2 receptor (Homo sapiens, UniProt P08172).
T1 construct: expressed in transfected cells; host or cells: CHO-K1 (M2_CHO)
T1 sequence (P08172 1-466): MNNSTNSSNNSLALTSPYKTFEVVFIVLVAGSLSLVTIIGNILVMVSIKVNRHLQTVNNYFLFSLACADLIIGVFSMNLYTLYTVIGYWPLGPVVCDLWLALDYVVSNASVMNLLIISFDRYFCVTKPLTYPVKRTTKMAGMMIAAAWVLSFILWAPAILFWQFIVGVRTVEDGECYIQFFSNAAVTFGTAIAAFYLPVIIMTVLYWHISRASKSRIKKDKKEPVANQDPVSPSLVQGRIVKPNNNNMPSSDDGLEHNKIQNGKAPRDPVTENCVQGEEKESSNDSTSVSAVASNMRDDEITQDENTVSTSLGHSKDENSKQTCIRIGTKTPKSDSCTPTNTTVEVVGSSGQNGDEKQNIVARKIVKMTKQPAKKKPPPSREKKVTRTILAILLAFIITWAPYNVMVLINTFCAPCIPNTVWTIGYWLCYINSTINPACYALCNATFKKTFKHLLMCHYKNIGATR
In words: CHRM2 Ca++ Flux Assay (M2_CHO cells, agonist mode). Type of experiment: cell-based. The settings on record: M2 CHO cells; for EC50: agonist mode, geometric mean if tested more than once, read-out: M2 FDSS EC50; for Emax: read-out: M2 FDSS PA %. The method, boiled down:
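CHO-K1 cells stably expressing human CHRM2 were plated overnight at 12K cells/well and loaded with Ca++ dye for 1–2 h. They were then held 60 minutes in HBSS −Ca/−Mg, 20 mM HEPES, 2.5 mM probenecid, 20 μM ATP. Agonist-mode Ca++ flux was read over 3 minutes. Four-parameter fits of triplicates gave percent activity relative to carbachol EC100.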

Experiment [2] deals with T2, human cloned CHRM4 receptor (Homo sapiens, UniProt P08173).
T2 construct: expressed in transfected cells; host or cells: CHO-K1 (M4_CHO)
T2 sequence (P08173 1-479): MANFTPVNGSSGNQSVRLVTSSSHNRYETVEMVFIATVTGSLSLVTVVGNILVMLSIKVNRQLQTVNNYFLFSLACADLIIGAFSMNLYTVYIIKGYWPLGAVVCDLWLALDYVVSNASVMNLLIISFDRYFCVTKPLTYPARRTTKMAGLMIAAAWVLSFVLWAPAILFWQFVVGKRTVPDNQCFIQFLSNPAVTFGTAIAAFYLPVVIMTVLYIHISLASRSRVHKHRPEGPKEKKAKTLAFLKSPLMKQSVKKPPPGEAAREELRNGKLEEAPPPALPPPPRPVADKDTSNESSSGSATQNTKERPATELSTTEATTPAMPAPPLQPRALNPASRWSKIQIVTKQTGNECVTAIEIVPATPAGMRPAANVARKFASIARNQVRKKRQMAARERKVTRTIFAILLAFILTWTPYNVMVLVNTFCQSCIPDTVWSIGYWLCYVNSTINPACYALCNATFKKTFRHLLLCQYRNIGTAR
Nature of the experiment: CHRM4 Ca++ Flux Assay (M4_CHO cells, agonist mode). Type of experiment: cell-based. The conditions noted are these: for Emax: read-out: M4 FDSS PA %; for EC50: geometric mean if tested more than once, read-out: M4 FDSS EC50. Put shortly:
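CHO-K1 cells stably expressing human M4 were dye-loaded, then held 60 min at RT in Ca/Mg-free HBSS buffer with 20 μM ATP. Ca++ traces were recorded over 3 min after an 11-point compound series in triplicate, agonist mode, with a four-parameter fit. Percent activity is relative to the carbachol EC100; repeat tests are geometric means.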

The mark [3] stands for this setting: Percent Activity (PA) measured to EC100 of Carbachol.

Some results are limits rather than exact numbers.

For orientation: EC50 means the concentration giving half of the maximal effect. As to `c1ccc(C2CCN([C@@H]3COC4(C3)CN(c3ncco3)C4)CC2)c(O[C@H]2CCOC2)c1` [Example 4H, (S)-2-(oxazol-2-yl)-7-(4-(2-(((S)-tetrahydrofuran-3-yl)oxy)phenyl)piperidin-1-yl)-5-oxa-2-azaspiro[3.4]octane], the EC50 in experiment [1] is above 25000 nM; in experiment [2], 17 nM. For the same molecule, the values for the Emax in experiment [1] (setting [3]) and in experiment [2] (Percent Activity (PA)) were 20% and 69%, respectively.

With `COc1cc(F)ccc1C1CCN([C@@H]2COC3(C2)CN(c2ncns2)C3)CC1` [Example 5E, (S)-7-(4-(4-fluoro-2-methoxyphenyl)piperidin-1-yl)-2-(1,2,4-thiadiazol-5-yl)-5-oxa-2-azaspiro[3.4]octane], the half-maximal effective concentration (EC50) in experiment [1] was above 25000 nM; in experiment [2], 345 nM. Further, the values for the Emax in experiment [1] (setting [3]) and in experiment [2] (Percent Activity (PA)) were 0% and 39%, respectively.

With `Fc1ccc(OC[C@H]2COCCO2)c(C2CCN([C@@H]3COC4(C3)CN(c3nncs3)C4)CC2)c1` [Example 5K, (S)-7-(4-(2-(((R)-1,4-dioxan-2-yl)methoxy)-5-fluorophenyl)piperidin-1-yl)-2-(1,3,4-thiadiazol-2-yl)-5-oxa-2-azaspiro[3.4]octane], the EC50 in experiment [1] is 453 nM; in experiment [2] it was 31 nM. Further, the Emax in experiment [1] (setting [3]) came to 32%; in experiment [2] (Percent Activity (PA)) it was 87%.

On to `c1ccc(C2CCN([C@@H]3COC4(C3)CN(c3ncco3)C4)CC2)c(OC2CC3(COC3)C2)c1` [Example 4M, (S)-7-(4-(2-((2-oxaspiro[3.3]heptan-6-yl)oxy)phenyl)piperidin-1-yl)-2-(oxazol-2-yl)-5-oxa-2-azaspiro[3.4]octane], for which the EC50 was above 25000 nM in experiment [1] and 86 nM in experiment [2]. Moreover, the Emax stood at 0% in experiment [1] (setting [3]) and 82% in experiment [2] (Percent Activity (PA)).

As for `C[C@H](Oc1ccc(F)cc1C1CCN([C@@H]2COC3(C2)CN(c2nnco2)C3)CC1)C1CCOCC1` (single isomer, unassigned) [Example 2Y, (S)-7-(4-(5-fluoro-2-((S)-1-(tetrahydro-2H-pyran-4-yl)ethoxy)phenyl)piperidin-1-yl)-2-(1,3,4-oxadiazol-2-yl)-5-oxa-2-azaspiro[3.4]octane or (S)-7-(4-(5-fluoro-2-((R)-1-(tetrahydro-2H-pyran-4-yl)ethoxy)phenyl)piperidin-1-yl)-2-(1,3,4-oxadiazol-2-yl)-5-oxa-2-azaspiro[3.4]octane], the EC50 was found to be 3330 nM in experiment [1] and 554 nM in experiment [2]. Besides, the “M2 FDSS PA %” value in experiment [1] (setting [3]) turned out to be 35%. Further, the “M4 FDSS PA %” value in experiment [2] (Percent Activity (PA)) is 76%.

`CC(C)(C#N)COc1ccc(F)cc1C1CCN([C@@H]2COC3(C2)CN(c2nnco2)C3)CC1` [Example 1E, (S)-3-(2-(1-(2-(1,3,4-oxadiazol-2-yl)-5-oxa-2-azaspiro[3.4]octan-7-yl)piperidin-4-yl)-4-fluorophenoxy)-2,2-dimethylpropanenitrile]: the values for the concentration giving a half-maximal response (EC50) in experiment [1] and in experiment [2] were 557 nM and 27 nM, respectively. The values for the Emax in experiment [1] (setting [3]) and in experiment [2] (Percent Activity (PA)) were 32% and 78%, respectively.
